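Grown in 96-well plates, cells were treated for 48 hours with each compound at five concentrations. Insufficient inhibition: endpoint recorded as highest concentration tested. GI50 is the concentration that inhibits growth by half. The concentration for full growth arrest is given as TGI.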
Key:
Assay in all cases: growth of human tumour cells (NCI), 48 h
786-0 renal = system: 786-0 renal
A498 renal = system: A498 renal
ACHN renal = system: ACHN renal
BT-549 breast = system: BT-549 breast
CCRF-CEM leukemia = system: CCRF-CEM leukemia
DU-145 prostate = system: DU-145 prostate
EKVX NSCLC = system: EKVX NSCLC
HCC-2998 colon = system: HCC-2998 colon
HCT-116 colon = system: HCT-116 colon
HL-60(TB) leukemia = system: HL-60(TB) leukemia
HOP-62 NSCLC = system: HOP-62 NSCLC
HOP-92 NSCLC = system: HOP-92 NSCLC
HS 578T breast = system: HS 578T breast
HT29 colon = system: HT29 colon
IGROV1 ovarian = system: IGROV1 ovarian
KM12 colon = system: KM12 colon
M14 melanoma = system: M14 melanoma
MALME-3M melanoma = system: MALME-3M melanoma
MCF7 breast = system: MCF7 breast
MOLT-4 leukemia = system: MOLT-4 leukemia
NCI-H226 lung = system: NCI-H226 lung
NCI-H460 lung = system: NCI-H460 lung
NCI/ADR-RES ovarian = system: NCI/ADR-RES ovarian
OVCAR-3 ovarian = system: OVCAR-3 ovarian
OVCAR-5 ovarian = system: OVCAR-5 ovarian
OVCAR-8 ovarian = system: OVCAR-8 ovarian
PC-3 prostate = system: PC-3 prostate
SF-268 CNS = system: SF-268 CNS
SF-295 CNS = system: SF-295 CNS
SF-539 CNS = system: SF-539 CNS
SK-MEL-2 melanoma = system: SK-MEL-2 melanoma
SK-MEL-28 melanoma = system: SK-MEL-28 melanoma
SK-MEL-5 melanoma = system: SK-MEL-5 melanoma
SK-OV-3 ovarian = system: SK-OV-3 ovarian
SNB-19 CNS = system: SNB-19 CNS
SNB-75 CNS = system: SNB-75 CNS
T-47D breast = system: T-47D breast
TK-10 renal = system: TK-10 renal
U251 CNS = system: U251 CNS
UACC-257 melanoma = system: UACC-257 melanoma
UACC-62 melanoma = system: UACC-62 melanoma
UO-31 renal = system: UO-31 renal
A549 NSCLC = system: A549 NSCLC
CAKI-1 renal = system: CAKI-1 renal
COLO 205 colon = system: COLO 205 colon
HCT-15 colon = system: HCT-15 colon
LOX IMVI melanoma = system: LOX IMVI melanoma
MDA-MB-231 breast = system: MDA-MB-231 breast
MDA-MB-435 = system: MDA-MB-435
NCI-H23 lung = system: NCI-H23 lung
NCI-H522 lung = system: NCI-H522 lung
OVCAR-4 ovarian = system: OVCAR-4 ovarian
RPMI-8226 leukemia = system: RPMI-8226 leukemia
RXF 393 renal = system: RXF 393 renal
SN12C renal = system: SN12C renal
SW-620 colon = system: SW-620 colon

Cc1nccc2c3ccc(OCc4cn(-c5ccc(Br)cc5)nn4)cc3n(CCCc3ccccc3)c12
GI50 (786-0 renal): 1.49 µM | TGI (786-0 renal): 3.13 µM | GI50 (A498 renal): > 100 µM | TGI (A498 renal): > 100 µM | GI50 (ACHN renal): 1.23 µM | TGI (ACHN renal): 3.52 µM | GI50 (BT-549 breast): 2.47 µM | TGI (BT-549 breast): 7.48 µM | GI50 (CCRF-CEM leukemia): 2.97 µM | TGI (CCRF-CEM leukemia): > 100 µM | GI50 (DU-145 prostate): 5.2 µM | TGI (DU-145 prostate): > 100 µM | GI50 (EKVX NSCLC): > 100 µM | TGI (EKVX NSCLC): > 100 µM | GI50 (HCC-2998 colon): > 100 µM | TGI (HCC-2998 colon): > 100 µM | GI50 (HCT-116 colon): 7.2 µM | TGI (HCT-116 colon): > 100 µM | GI50 (HL-60(TB) leukemia): 6.53 µM | TGI (HL-60(TB) leukemia): > 100 µM | GI50 (HOP-62 NSCLC): 3.16 µM | TGI (HOP-62 NSCLC): 29.6 µM | GI50 (HOP-92 NSCLC): 47.4 µM | TGI (HOP-92 NSCLC): > 100 µM | GI50 (HS 578T breast): 1.31 µM | TGI (HS 578T breast): 4.56 µM | GI50 (HT29 colon): 2.9 µM | TGI (HT29 colon): > 100 µM | GI50 (IGROV1 ovarian): 6.44 µM | TGI (IGROV1 ovarian): > 100 µM | GI50 (KM12 colon): 2.73 µM | TGI (KM12 colon): > 100 µM | GI50 (M14 melanoma): 1.14 µM | TGI (M14 melanoma): 2.47 µM | GI50 (MALME-3M melanoma): 1.62 µM | TGI (MALME-3M melanoma): 3.57 µM | GI50 (MCF7 breast): 3.09 µM | TGI (MCF7 breast): > 100 µM | GI50 (MOLT-4 leukemia): 5.55 µM | TGI (MOLT-4 leukemia): > 100 µM | GI50 (NCI-H226 lung): 1.75 µM | TGI (NCI-H226 lung): 13.6 µM | GI50 (NCI-H460 lung): 3.03 µM | TGI (NCI-H460 lung): > 100 µM | GI50 (NCI/ADR-RES ovarian): 1.79 µM | TGI (NCI/ADR-RES ovarian): 4.61 µM | GI50 (OVCAR-3 ovarian): > 100 µM | TGI (OVCAR-3 ovarian): > 100 µM | GI50 (OVCAR-5 ovarian): 2.15 µM | TGI (OVCAR-5 ovarian): 6.72 µM | GI50 (OVCAR-8 ovarian): 2.12 µM | TGI (OVCAR-8 ovarian): 5.09 µM | GI50 (PC-3 prostate): 3.42 µM | TGI (PC-3 prostate): > 100 µM | GI50 (SF-268 CNS): 2.17 µM | TGI (SF-268 CNS): 5.85 µM | GI50 (SF-295 CNS): > 100 µM | TGI (SF-295 CNS): > 100 µM | GI50 (SF-539 CNS): 1.72 µM | TGI (SF-539 CNS): 3.4 µM | GI50 (SK-MEL-2 melanoma): > 100 µM | TGI (SK-MEL-2 melanoma): > 100 µM | GI50 (SK-MEL-28 melanoma): 1.72 µM | TGI (SK-MEL-28 melanoma): 3.45 µM | GI50 (SK-MEL-5 melanoma): 3.92 µM | TGI (SK-MEL-5 melanoma): > 100 µM | GI50 (SK-OV-3 ovarian): 31.2 µM | TGI (SK-OV-3 ovarian): > 100 µM | GI50 (SNB-19 CNS): 3.35 µM | TGI (SNB-19 CNS): > 100 µM | GI50 (SNB-75 CNS): 1.54 µM | TGI (SNB-75 CNS): 3.98 µM | GI50 (T-47D breast): > 100 µM | TGI (T-47D breast): > 100 µM | GI50 (TK-10 renal): 1.62 µM | TGI (TK-10 renal): 3.29 µM | GI50 (U251 CNS): 1.92 µM | TGI (U251 CNS): 3.79 µM | GI50 (UACC-257 melanoma): 2.06 µM | TGI (UACC-257 melanoma): 4.4 µM | GI50 (UACC-62 melanoma): 2.46 µM | TGI (UACC-62 melanoma): 7.08 µM | GI50 (UO-31 renal): 1.41 µM | TGI (UO-31 renal): 3.01 µM

Oc1ccccc1/C=N\Nc1ccccc1
GI50 (786-0 renal): 2.7 µM | TGI (786-0 renal): 16.6 µM | GI50 (A549 NSCLC): 3.94 µM | TGI (A549 NSCLC): > 100 µM | GI50 (ACHN renal): 2.84 µM | TGI (ACHN renal): 62.2 µM | GI50 (BT-549 breast): 3.19 µM | TGI (BT-549 breast): 25.4 µM | GI50 (CAKI-1 renal): 1.64 µM | TGI (CAKI-1 renal): 21.4 µM | GI50 (CCRF-CEM leukemia): 0.533 µM | TGI (CCRF-CEM leukemia): > 100 µM | GI50 (COLO 205 colon): 5.92 µM | TGI (COLO 205 colon): 21.3 µM | GI50 (DU-145 prostate): 15.8 µM | TGI (DU-145 prostate): > 100 µM | GI50 (EKVX NSCLC): 12.9 µM | TGI (EKVX NSCLC): > 100 µM | GI50 (HCC-2998 colon): 3.45 µM | TGI (HCC-2998 colon): 15.5 µM | GI50 (HCT-116 colon): 7.22 µM | TGI (HCT-116 colon): > 100 µM | GI50 (HCT-15 colon): 4.16 µM | TGI (HCT-15 colon): 26.4 µM | GI50 (HL-60(TB) leukemia): 1.31 µM | TGI (HL-60(TB) leukemia): 4.8 µM | GI50 (HOP-62 NSCLC): 21.9 µM | TGI (HOP-62 NSCLC): > 100 µM | GI50 (HOP-92 NSCLC): 10.7 µM | TGI (HOP-92 NSCLC): 42.8 µM | GI50 (HT29 colon): 9.39 µM | TGI (HT29 colon): 28.4 µM | GI50 (IGROV1 ovarian): 21.7 µM | TGI (IGROV1 ovarian): > 100 µM | GI50 (KM12 colon): 2.25 µM | TGI (KM12 colon): > 100 µM | GI50 (LOX IMVI melanoma): 0.725 µM | TGI (LOX IMVI melanoma): 12.5 µM | GI50 (M14 melanoma): 3.7 µM | TGI (M14 melanoma): 19.4 µM | GI50 (MALME-3M melanoma): 3.72 µM | TGI (MALME-3M melanoma): 21.7 µM | GI50 (MCF7 breast): 4.06 µM | TGI (MCF7 breast): > 100 µM | GI50 (MDA-MB-231 breast): 0.553 µM | TGI (MDA-MB-231 breast): 22.7 µM | GI50 (MDA-MB-435): 2.87 µM | TGI (MDA-MB-435): > 100 µM | GI50 (MOLT-4 leukemia): 0.974 µM | TGI (MOLT-4 leukemia): 55.6 µM | GI50 (NCI-H226 lung): 3.13 µM | TGI (NCI-H226 lung): 31.4 µM | GI50 (NCI-H23 lung): 12 µM | TGI (NCI-H23 lung): 84.1 µM | GI50 (NCI-H460 lung): 3.36 µM | TGI (NCI-H460 lung): > 100 µM | GI50 (NCI-H522 lung): 1.73 µM | TGI (NCI-H522 lung): 82.9 µM | GI50 (NCI/ADR-RES ovarian): 3.2 µM | TGI (NCI/ADR-RES ovarian): 88.5 µM | GI50 (OVCAR-3 ovarian): 10.4 µM | TGI (OVCAR-3 ovarian): > 100 µM | GI50 (OVCAR-4 ovarian): 24.8 µM | TGI (OVCAR-4 ovarian): > 100 µM | GI50 (OVCAR-5 ovarian): 8.75 µM | TGI (OVCAR-5 ovarian): 39.2 µM | GI50 (OVCAR-8 ovarian): 4.94 µM | TGI (OVCAR-8 ovarian): > 100 µM | GI50 (PC-3 prostate): 9.32 µM | TGI (PC-3 prostate): > 100 µM | GI50 (RPMI-8226 leukemia): 3.99 µM | TGI (RPMI-8226 leukemia): 56.8 µM | GI50 (RXF 393 renal): 19.1 µM | TGI (RXF 393 renal): 77.9 µM | GI50 (SF-268 CNS): 18.6 µM | TGI (SF-268 CNS): > 100 µM | GI50 (SF-295 CNS): 1.63 µM | TGI (SF-295 CNS): 8.07 µM | GI50 (SF-539 CNS): 2.18 µM | TGI (SF-539 CNS): 5.59 µM | GI50 (SK-MEL-2 melanoma): 13.2 µM | TGI (SK-MEL-2 melanoma): > 100 µM | GI50 (SK-MEL-28 melanoma): 5.33 µM | TGI (SK-MEL-28 melanoma): > 100 µM | GI50 (SK-MEL-5 melanoma): 3.59 µM | TGI (SK-MEL-5 melanoma): 19.8 µM | GI50 (SK-OV-3 ovarian): 70.4 µM | TGI (SK-OV-3 ovarian): > 100 µM | GI50 (SN12C renal): 3.41 µM | TGI (SN12C renal): > 100 µM | GI50 (SNB-19 CNS): 13.7 µM | TGI (SNB-19 CNS): 95 µM | GI50 (SNB-75 CNS): 21.2 µM | TGI (SNB-75 CNS): > 100 µM | GI50 (SW-620 colon): 2.94 µM | TGI (SW-620 colon): > 100 µM | GI50 (T-47D breast): 3.43 µM | TGI (T-47D breast): > 100 µM | GI50 (TK-10 renal): 24.9 µM | TGI (TK-10 renal): > 100 µM | GI50 (U251 CNS): 10.2 µM | TGI (U251 CNS): 65.6 µM | GI50 (UACC-257 melanoma): 31.1 µM | TGI (UACC-257 melanoma): > 100 µM | GI50 (UACC-62 melanoma): 0.798 µM | TGI (UACC-62 melanoma): 10.1 µM | GI50 (UO-31 renal): 2.35 µM | TGI (UO-31 renal): 36.3 µM

Source: PubChem BioAssay (NCI)
